Columns and labels:
[1] = tested on: itchgrass; assay: Test D itchgrass; type: in vivo, Rottboellia exaltata; details: Postemergence, 0 to 100 scale
[2] = tested on: Green foxtail; assay: Test D green foxtail; type: in vivo; details: Postemergence, 0 to 100 scale, 0 no injury, 100 complete control
[3] = tested on: tall mallow; assay: Test D tall mallow; type: in vivo, Malva sylvestris; details: Postemergence, 0 to 100 scale
[4] = tested on: Spanishneedles; assay: Test D Spanishneedles; type: in vivo, Bidens bipinnata; details: Postemergence, 0 to 100 scale
[5] = tested on: pitted morningglory; assay: Test D pitted morningglory; type: in vivo, Ipomoea lacunosa; details: Postemergence, 0 to 100 scale
[6] = tested on: common groundsel; assay: Test D common groundsel; type: in vivo, Senecio vulgaris; details: Postemergence, 0 to 100 scale
[7] = tested on: Green foxtail; assay: Test D green foxtail; type: in vivo; details: Postemergence, 0 to 100 scale, 0 no injury, 100 complete control; remark: listed apart in the source
[8] = tested on: dallisgrass; assay: Test D dallisgrass; type: in vivo, Paspalum dilatatum; details: Postemergence, 0 to 100 scale
[9] = tested on: bermuda-grass; assay: Test D bermudagrass; type: in vivo, Cynodon dactylon; details: Postemergence, 0 to 100 scale
[10] = tested on: Green foxtail; assay: Test D green foxtail; type: in vivo; details: Postemergence, 0 to 100 scale, 0 no injury, 100 complete control; remark: listed apart in the source
[11] = tested on: guineagrass; assay: Test D guineagrass; type: in vivo, Panicum maximum; details: Postemergence, 0 to 100 scale
[12] = Rate 16 g/ha, 0 no injury, 100 complete control
[13] = Rate 32 g/ha, 0 no injury, 100 complete control
[14] = Rate 64 g/ha, 0 no injury, 100 complete control
[15] = Rate 125 g/ha, 0 no injury, 100 complete control

CC(C)N(C(=O)n1oc(=O)n(C2CC2)c1=O)c1ccc(Cl)cc1 [Compound 241]
Plant response rating, Itchgrass [1, 12]: 0 | Plant response rating, Itchgrass [1, 13]: 0 | Plant response rating, Itchgrass [1, 14]: 0 | Plant response rating, Itchgrass [1, 15]: 100 | Plant response rating, Itchgrass ([1]; Rate 250 g/ha): 100 | Green foxtail plant response rating ([2]; Rate 64 g/ha): 10 | Green foxtail plant response rating ([2]; Rate 125 g/ha): 100 | Plant response rating, Tall Mallow [3, 12]: 0 | Plant response rating, Tall Mallow [3, 13]: 0 | Tall Mallow plant response rating [3, 14]: 0 | Tall Mallow plant response rating [3, 15]: 10 | Plant response rating, Tall Mallow ([3]; Rate 250 g/ha): 40 | Plant response rating, Spanishneedles [4, 12]: 0 | Plant response rating, Spanishneedles [4, 13]: 0 | Spanishneedles plant response rating [4, 14]: 0 | Spanishneedles plant response rating [4, 15]: 0 | Plant response rating, Spanishneedles ([4]; Rate 250 g/ha): 10 | Plant response rating, P. morninglory [5, 12]: 0 | Plant response rating, P. morninglory [5, 13]: 0 | Plant response rating, P. morninglory [5, 14]: 0 | Plant response rating, P. morninglory [5, 15]: 0 | Plant response rating, P. morninglory ([5]; Rate 250 g/ha): 0 | Plant response rating, Com. groundsel [6, 13]: 0 | Plant response rating, Com. groundsel [6, 14]: 0 | Plant response rating, Com. groundsel [6, 15]: 100 | Plant response rating, Com. groundsel ([6]; Rate 250 g/ha): 100 | Plant response rating, Green foxtail ([7]; Rate 16 g/ha): 0 | Plant response rating, Green foxtail ([7]; Rate 32 g/ha): 10 | Plant response rating, Dallisgrass [8, 12]: 0 | Plant response rating, Dallisgrass [8, 13]: 40 | Plant response rating, Dallisgrass [8, 14]: 50 | Plant response rating, Dallisgrass [8, 15]: 90 | Plant response rating, Dallisgrass ([8]; Rate 250 g/ha): 100 | Plant response rating, Bermudagrass [9, 12]: 0 | Plant response rating, Bermudagrass [9, 13]: 30 | Plant response rating, Bermudagrass [9, 14]: 100 | Plant response rating, Bermudagrass [9, 15]: 100 | Plant response rating, Bermudagrass ([9]; Rate 250 g/ha): 100 | Plant response rating, Green foxtail ([10]; Rate 64 g/ha): 10 | Plant response rating, Green foxtail ([10]; Rate 125 g/ha): 100 | Plant response rating, Guineagrass [11, 12]: 0 | Plant response rating, Guineagrass [11, 13]: 0 | Guineagrass plant response rating [11, 14]: 100 | Plant response rating, Guineagrass [11, 14]: 80 | Plant response rating, Guineagrass [11, 15]: 100 | Plant response rating, Guineagrass ([11]; Rate 250 g/ha): 100

CC(C)N(C(=O)n1oc(=O)n(C2CCC2)c1=O)c1ccccc1 [Compound 348]
Plant response rating, Itchgrass [1, 12]: 0 | Plant response rating, Itchgrass [1, 13]: 0 | Plant response rating, Itchgrass [1, 14]: 0 | Plant response rating, Itchgrass [1, 15]: 0 | Plant response rating, Itchgrass ([1]; Rate 250 g/ha): 100 | Green foxtail plant response rating ([2]; Rate 64 g/ha): 100 | Green foxtail plant response rating ([2]; Rate 125 g/ha): 100 | Plant response rating, Tall Mallow [3, 12]: 0 | Plant response rating, Tall Mallow [3, 13]: 0 | Tall Mallow plant response rating [3, 14]: 0 | Tall Mallow plant response rating [3, 15]: 20 | Plant response rating, Tall Mallow ([3]; Rate 250 g/ha): 40 | Plant response rating, Spanishneedles [4, 12]: 0 | Plant response rating, Spanishneedles [4, 13]: 0 | Spanishneedles plant response rating [4, 14]: 0 | Spanishneedles plant response rating [4, 15]: 0 | Plant response rating, Spanishneedles ([4]; Rate 250 g/ha): 0 | Plant response rating, P. morninglory [5, 12]: 0 | Plant response rating, P. morninglory [5, 13]: 0 | Plant response rating, P. morninglory [5, 14]: 0 | Plant response rating, P. morninglory [5, 15]: 0 | Plant response rating, P. morninglory ([5]; Rate 250 g/ha): 0 | Plant response rating, Com. groundsel [6, 12]: 30 | Plant response rating, Com. groundsel [6, 14]: 50 | Plant response rating, Com. groundsel [6, 15]: 100 | Plant response rating, Com. groundsel ([6]; Rate 250 g/ha): 100 | Plant response rating, Green foxtail ([7]; Rate 16 g/ha): 0 | Plant response rating, Green foxtail ([7]; Rate 32 g/ha): 20 | Plant response rating, Dallisgrass [8, 12]: 0 | Plant response rating, Dallisgrass [8, 13]: 50 | Plant response rating, Dallisgrass [8, 14]: 90 | Plant response rating, Dallisgrass [8, 15]: 100 | Plant response rating, Dallisgrass ([8]; Rate 250 g/ha): 100 | Plant response rating, Bermudagrass [9, 12]: 0 | Plant response rating, Bermudagrass [9, 13]: 20 | Plant response rating, Bermudagrass [9, 14]: 100 | Plant response rating, Bermudagrass [9, 15]: 100 | Plant response rating, Bermudagrass ([9]; Rate 250 g/ha): 100 | Plant response rating, Green foxtail ([10]; Rate 64 g/ha): 100 | Plant response rating, Green foxtail ([10]; Rate 125 g/ha): 100 | Plant response rating, Guineagrass [11, 12]: 0 | Plant response rating, Guineagrass [11, 13]: 0 | Plant response rating, Guineagrass [11, 14]: 0 | Plant response rating, Guineagrass [11, 15]: 100 | Plant response rating, Guineagrass ([11]; Rate 250 g/ha): 80
